Source: patent publication EP4273147A1, “SUBSTITUTED SPIROLACTAMS, SALTS THEREOF AND THEIR USE AS HERBICIDALLY ACTIVE SUBSTANCES” (Bayer Aktiengesellschaft, priority 2022, dated 2023)

Legend:
[1] = system: POAAN; test: Herbicidal pre-emergence action (Table A7); format: in vivo, Poa annua; conditions: visual grading after ca. 3 weeks; for pest or weed control at 1280 g/ha: Poa annua, pre-emergence, 504 h, read-out: pre-emergence activity against POAAN
Text: (§1) Seeds of mono- and dicotyledonous weed plants were sown in plastic pots (double sowings with one species of mono- and one species of dicotyledonous weed plants per pot), in sandy loam, and covered with soil.

[2] = system: STEME; test: Herbicidal pre-emergence action (Table A6); format: in vivo, Stellaria media; conditions: visual grading after ca. 3 weeks
Text: as §1

[3] = system: ECHCG; test: Herbicidal pre-emergence action (Table A2); format: in vivo, Echinochloa crus-galli; conditions: visual grading after ca. 3 weeks
Text: as §1

[4] = system: POAAN; test: Herbicidal post-emergence action (Table B7); format: in vivo, Poa annua
Procedure: (§2) Seeds of mono- and dicotyledonous weed plants were placed in plastic pots in sandy loam soil (doubly sown with in each case one species of mono- or dicotyledonous weed plants per pot), covered with soil and cultivated in a greenhouse under controlled growth conditions. 2 to 3 weeks after sowing, the test plants were treated at the one-leaf stage. […] After the test plants had been kept in the greenhouse under optimum growth conditions for about 3 weeks, the activity of the preparations was rated visually in comparison to untreated controls. For example, 100% activity = the plants have died, 0% activity = like control plants.

[5] = system: ECHCG; test: Herbicidal post-emergence action (Table B3); format: in vivo, Echinochloa crus-galli; conditions: application rate 1280 g/ha; rated visually after about 3 weeks
Procedure: as §2

[6] = system: SETVI; test: Herbicidal pre-emergence action (Table A5); format: in vivo, Setaria viridis; conditions: visual grading after ca. 3 weeks
Text: as §1

[7] = system: DIGSA; test: Herbicidal pre-emergence action (Table A12); format: in vivo, Digitaria sanguinalis; conditions: application rate 1280 g/ha; visual grading after ca. 3 weeks
Text: as §1

[8] = system: LOLRI; test: Herbicidal pre-emergence action (Table A3); format: in vivo, Lolium rigidum; conditions: application rate 1280 g/ha, visual grading after ca. 3 weeks
Text: as §1

[9] = system: MATIN; test: Herbicidal pre-emergence action (Table A4); format: in vivo, Matricaria inodora; conditions: application rate 320 g/ha; visual grading after ca. 3 weeks
Text: as §1

## O=C1N(Cc2c(F)cccc2C(F)(F)F)CCCC12CCCN(Cc1c(F)cccc1C(F)(F)F)C2=O (racemic) [I-041]
[1]; application rate 1280 g/ha
  pre-emergence activity against POAAN: 90%
[2]; application rate 320 g/ha
  pre-emergence activity against STEME: 100%

## Cc1ccccc1CN1CCCC2(CCCN(Cc3cccs3)C2=O)C1=O (racemic) [I-043]
[3]; application rate 320 g/ha
  pre-emergence activity against ECHCG: 100%
[1]; application rate 320 g/ha
  pre-emergence activity against POAAN: 100%
[4]; application rate 320 g/ha
  post-emergence activity against POAAN: 90%
[2]; application rate 1280 g/ha
  pre-emergence activity against STEME: 90%
[5]
  post-emergence activity against ECHCG: 90%
[6]; application rate 1280 g/ha
  pre-emergence activity against SETVI: 100%

## O=C1N(Cc2c(F)c(F)c(F)c(F)c2F)CCCC12CCCN(Cc1c(F)c(F)c(F)c(F)c1F)C2=O (racemic) [I-050]
[3]; application rate 1280 g/ha
  pre-emergence activity against ECHCG: 100%
[1]; application rate 1280 g/ha
  pre-emergence activity against POAAN: 100%
[2]; application rate 1280 g/ha
  pre-emergence activity against STEME: 100%
[5]
  post-emergence activity against ECHCG: 100%
[6]; application rate 1280 g/ha
  pre-emergence activity against SETVI: 100%

## O=C1N(Cc2ccccc2Br)CCCC12CCCN(Cc1ccccc1Br)C2=O (racemic) [I-064]
[3]; application rate 1280 g/ha
  pre-emergence activity against ECHCG: 90%
[1]; application rate 1280 g/ha
  pre-emergence activity against POAAN: 100%
[4]; application rate 1280 g/ha
  post-emergence activity against POAAN: 100%
[6]; application rate 1280 g/ha
  pre-emergence activity against SETVI: 90%

## O=C1N(Cc2ccccc2C(F)F)CCCC12CCCN(Cc1ccccc1C(F)F)C2=O (racemic) [I-067]
[1]; application rate 320 g/ha
  pre-emergence activity against POAAN: 100%
[6]; application rate 1280 g/ha
  pre-emergence activity against SETVI: 100%

## O=C1N(Cc2ccc(F)cc2Cl)CCCC12CCCN(Cc1ccc(F)cc1Cl)C2=O (racemic) [I-070]
[1]; application rate 1280 g/ha
  pre-emergence activity against POAAN: 100%
[2]; application rate 1280 g/ha
  pre-emergence activity against STEME: 90%

## O=C1N(Cc2c(F)ccc(F)c2Cl)CCCC12CCCN(Cc1c(F)ccc(F)c1Cl)C2=O (racemic) [I-078]
[1]; application rate 1280 g/ha
  pre-emergence activity against POAAN: 100%
[2]; application rate 320 g/ha
  pre-emergence activity against STEME: 90%

## Cc1ccccc1CN1CCCC2(CCN(Cc3ccccc3F)C2=O)C1=O (racemic) [I-086]
[3]; application rate 1280 g/ha
  pre-emergence activity against ECHCG: 100%
[7]
  pre-emergence activity against DIGSA: 100%
[1]; application rate 1280 g/ha
  pre-emergence activity against POAAN: 100%
[6]; application rate 1280 g/ha
  pre-emergence activity against SETVI: 90%

## N#Cc1ccccc1CN1CCCC2(CCCN(Cc3ccccc3C#N)C2=O)C1=O (racemic) [I-094]
[1]; application rate 1280 g/ha
  pre-emergence activity against POAAN: 100%
[6]; application rate 1280 g/ha
  pre-emergence activity against SETVI: 90%

## O=C1N(Cc2ccsc2)CCCC12CCCN(Cc1ccccc1Cl)C2=O (racemic) [I-099]
[3]; application rate 1280 g/ha
  pre-emergence activity against ECHCG: 100%
[8]
  pre-emergence activity against LOLRI: 100%
[6]; application rate 1280 g/ha
  pre-emergence activity against SETVI: 100%

## CCc1cc(CN2CCCC3(CCCN(Cc4cc(CC)no4)C3=O)C2=O)on1 (racemic) [I-100]
[3]; application rate 1280 g/ha
  pre-emergence activity against ECHCG: 100%
[8]
  pre-emergence activity against LOLRI: 100%

## COc1ccccc1CN1CCCC2(CCCN(c3ccccc3)C2=O)C1=O (racemic) [I-102]
[3]; application rate 1280 g/ha
  pre-emergence activity against ECHCG: 90%
[1]; application rate 1280 g/ha
  pre-emergence activity against POAAN: 90%
[2]; application rate 1280 g/ha
  pre-emergence activity against STEME: 90%
[6]; application rate 1280 g/ha
  pre-emergence activity against SETVI: 90%

## O=C1N(Cc2ccsc2)CCCC12CCCN(Cc1ccccc1F)C2=O (racemic) [I-104]
[3]; application rate 320 g/ha
  pre-emergence activity against ECHCG: 90%
[9]
  pre-emergence activity against MATIN: 90%
[1]; application rate 320 g/ha
  pre-emergence activity against POAAN: 100%
[6]; application rate 320 g/ha
  pre-emergence activity against SETVI: 90%

## O=C1N(Cc2cc(Cl)cnc2Cl)CCCC12CCCN(Cc1cc(Cl)cnc1Cl)C2=O (racemic) [I-117]
[1]; application rate 1280 g/ha
  pre-emergence activity against POAAN: 100%
[6]; application rate 1280 g/ha
  pre-emergence activity against SETVI: 100%

## Cc1cc(CN2CCCC3(CCCN(Cc4cc(C)no4)C3=O)C2=O)on1 (racemic) [I-195, 2,8-bis[(3-methyl-1,2-oxazol-5-yl)methyl]-2,8-diazaspiro[5.5]undecane-1,7-dione]
[1]; application rate 1280 g/ha
  pest or weed control at 1280 g/ha: 100%

## O=C1N(Cc2cnc(Br)s2)CCCC12CCCN(Cc1cnc(Br)s1)C2=O (racemic) [I-204, 2,8-bis[(2-bromo-1,3-thiazol-5-yl)methyl]-2,8-diazaspiro[5.5]undecane-1,7-dione]
[3]; application rate 1280 g/ha
  pre-emergence activity against ECHCG: 100%
[8]; Lolium rigidum, pre-emergence, 504 h, read-out: pre-emergence activity against LOLRI
  pest or weed control at 1280 g/ha: 90%
[1]; application rate 1280 g/ha
  pest or weed control at 1280 g/ha: 100%

## O=C1N(Cc2ccsc2Br)CCCC12CCCN(Cc1ccsc1Br)C2=O (racemic) [I-216, 2,8-bis[(2-bromothien-3-yl)methyl]-2,8-diazaspiro[5.5]undecane-1,7-dione]
[1]; application rate 1280 g/ha
  pest or weed control at 1280 g/ha: 90%
